Laboratory results published in US8420852B2, “Phospholipase A2 inhibitors and their use in treating neurological injury and disease” (The Regents of the University of California, priority 2007, dated 2013).

What was measured:
[1] = tested on: chemokine and cytokine protein expression in spinal cord; assay: mouse inflammation antibody array of spinal cords of EAE mice; format: in vivo; settings: treatment from day 5, tissue day 18
Description: Spinal cords were removed from vehicle and inhibitor treated animals when the vehicle-treated mice reached the peak of disease (score of 4). The tissues were then homogenized in lysis buffer and centrifuged at 1000×g. These protein samples were then assessed using the Raybio® inflammatory antibody array from RayBiotech Inc (Norcross, Ga.). Briefly, blocking buffer was added to glass-chip slides, which are coated with antibodies against chemokine, cytokine and related proteins. The slides were then incubated with the various protein samples from the treatment and control groups. After washing the glass slides, they were incubated sequentially with a biotin conjugated secondary antibody solution, horseradish peroxidase (HRP)-conjugated strepavidin, and HRP detection buffer. The signals were then visualized by chemiluminescence. Densitometric analysis was performed to detect differences between the various samples using ImageQuant 5.1 software (Molecular Dynamics). Positive control signals were used to normalize the level of expression from different glass slides being compared. Experiments were repeated with 3 different samples (n=3), and all the detection and analysis was done blind.
The results of this group of experiments are shown with the reference to FIGS. 15 and 16. FIG. 15 provides graphs showing the level of protein expression of chemokines in spinal cords of naive mice and EAE mice treated with PLA2 inhibitors starting on day 5. Tissues were taken on day 18, when the vehicle treated animals reached the peak of the first clinical attack. The data are shown for inhibitors AX059 (FIG. 15a) and AX115 (FIG. 15b). Data represent means±SEM from 3 animals in each group. In the figures, * represents a significant decrease, while ** represents a significant increase as compared to vehicle treated EAE controls.
FIG. 16 provides graphs showing the level of protein expression of cytokines in spinal cords of naive mice and EAE treated mice treated with PLA2 inhibitors starting on day 5. Tissues were taken on day 18, when the vehicle treated animals reached the peak of the first clinical attack. The data are shown for inhibitors AX059 (FIG. 16a) and AX115 (FIG. 16b). Data represent means±SEM from 3 animals in each group. In the figures, * represents a significant decrease, while ** represents a significant increase as compared to vehicle treated EAE controls.
Changes were assessed in protein expression of 40 chemokines and cytokines, their receptors and related molecules, using a mouse antibody array (RayBiotech Inc.). The analysis was carried out on spinal cords from mice treated with inhibitors starting from day 5 post-immunization. Tissue was taken on day 18 when the control vehicle-treated mice reached the peak of the first clinical attack. 12 chemokines were increased in vehicle-treated mice (FIG. 15), most of which are known to play a role in EAE, except for LIX (CXCL5) and TECK (CCL25), whose functions in CNS autoimmune disease remain unclear. […] In contrast, the pan-inhibitor AX115, which inhibits sPLA2 greater than AX059 reduced the expression of 7 of the 12 chemokines (FIG. 15b). Importantly, it increased the expression of eotaxin-2 (1.8-fold), RANTES (9.6-fold) and MIP-1 γ (9.7-fold) […], which can also regulate the allergic arm of the immune response.

[2] = tested on: fatty acids attached to phospholipid classes in spinal cord; assay: lipid profiling of spinal cords of EAE mice (fatty acid hydrolysis); format: in vivo, mouse; settings: for Treatment: mean ± SD, n=3; for % Difference: treated EAE vs naive
Description: Spinal cords were removed from vehicle and inhibitor treated animals at the peak stage of disease when the vehicle-treated mice reached the clinical score of 4, and the tissue snap frozen in liquid nitrogen. Lipid profiling was carried out by Lipomics Technology Inc. (West Sacramento, Calif.). The tissues were then extracted for either TrueMass® lipid profiling, or an eicosanoid inflammatory panel analysis. The lipids from the tissues were extracted in the presence of authentic internal standards as previously described (55), using chloroform:methanol (2:1 v/v). Individual lipid classes within each extract were separated by liquid chromatography (Agilent Technologies model 1100 Series). Each lipid class was trans-esterified in 1% sulfuric acid in methanol in a sealed vial under a nitrogen atmosphere at 100° C. for 45 min. The resulting fatty acid methyl esters were extracted from the mixture with hexane containing 0.05% butylated hydroxytoluene and prepared for gas chromatography by sealing the hexane extracts under nitrogen. Fatty acid methyl esters were separated and quantified by capillary gas chromatography (Agilent Technologies model 6890) equipped with a 30 m DB-88MS capillary column (Agilent Technologies) and a flame-ionization detector. Lipomic Surveyor® software was used to visualize changes within the treated groups. Experiments were repeated with 3 different samples (n=3), and all the detection and analysis was done blind.
As PLA2s hydrolyze fatty acids from the sn-2 position of phospholipids, a comprehensive profiling was carried out of 40 fatty acids (FAs) that are attached to 5 phospholipid classes in extracts of spinal cords of naive mice, EAE mice treated with vehicle, and PLA2 inhibitor-treated EAE mice. […] These tissues were taken from the same groups of mice used for the chemokine/cytokine assay described above.

## CCCCCCCCCCCCCCC(=O)C(=O)NCC(=O)OC [AX115]
[1]; of the 12 chemokines increased in vehicle-treated EAE mice
  number of chemokines reduced: 7
[1]; of the 13 cytokines increased in vehicle-treated EAE mice
  number of cytokines reduced: 9
[1]; spinal cord
  increase in expression of IL-10: failed to increase IL-10
  increase in expression of MIP-1 γ: 9.7 fold
  increase in expression of RANTES: 9.6 fold
  increase in expression of eotaxin-2: 1.8 fold
  increase in soluble TNF receptor 1 (sTNFR1): ~4 fold
[2]; Cardiolipin - arachidic, naive 464.0 ± 69.4
  Treatment: 324.4 ± 27.5 nmol
[2]; Cardiolipin - arachidic
  % Difference: 30.1%
[2]; Cardiolipin - eicosapentaenoic, naive 16.1 ± 4.8
  Treatment: 3.2 ± 5.5 nmol
[2]; Cardiolipin - eicosapentaenoic
  % Difference: 80.3%
[2]; Phosphatidylcholine - arachidic, naive 347.9 ± 20.1
  Treatment: 269.4 ± 24.9 nmol
[2]; Phosphatidylcholine - arachidic
  % Difference: 22.5%
[2]; Phosphatidylcholine - eicosenoic, naive 1666.2 ± 46.4
  Treatment: 1393.4 ± 52.5 nmol
[2]; Phosphatidylcholine - eicosenoic
  % Difference: 16.4%
[2]; Phosphatidylcholine - erucic
  % Difference: 22.4%
[2]; Phosphatidylserine - tetracosahexanoic, naive 9.7 ± 0.8
  Treatment: 6.4 ± 0.6 nmol
[2]; Phosphatidylserine - tetracosahexanoic
  % Difference: 33.8%
[2]; Phosphatidylserine-1-enyl-octadecenoic, naive 217.4 ± 37.9
  Treatment: 133.3 ± 32.5 nmol
[2]; Phosphatidylserine-1-enyl-octadecenoic
  % Difference: 38.7%
